In PubChem BioAssay AID489022 (Sanford-Burnham Center for Chemical Genomics, 2010):
The source made the active and inactive calls. The rule behind the calls is not given here.

tested on: HEK-293T NF-kB luciferase reporter, luminescence counterscreen; assay: NF-kB reporter suppression in HEK-293T cells – luminescence, B-cell screen hits, counter-screen for BCR NF-kB inhibitor project, dose response (AID 489022)

Structure (SMILES) | IC50
C=C1C(=O)[C@@]23C[C@H]4[C@@H]5[C@@]6(C)CCC[C@@]57[C@@H]2[C@@H](O)[C@@H]1C[C@H]3[C@H]7N4C6 | 17.3 µM
CCn1c(=O)cc(SCC(=O)N2CCCCC2)c2ccccc21 | > 80 µM (inactive)
COc1ccc(-c2noc(CCCC(=O)O)n2)cc1 | 4.02 µM
CCc1ccc(/C=C2/SC(=S)N(CCC(=O)Nc3cccc(C(=O)O)c3)C2=O)cc1 | > 80 µM (inactive)
O=C(N/N=C/c1ccc(Cl)cc1Cl)c1ccc(-n2cnnn2)cc1 | > 80 µM (inactive)
CCOc1ccc(-c2nc(CSCC(=O)NCc3ccco3)c(C)o2)cc1 | 18.9 µM
CCCc1nc2c(C)cc(-c3nc4ccccc4n3C)cc2n1Cc1ccc(-c2ccccc2C(=O)O)cc1 | > 80 µM (inactive)
CC(C)c1[nH]nc2c1C(c1ccco1)C(C#N)=C(N)O2 (stereo not drawn) | > 80 µM (inactive)
Cc1ccc(-c2nn3c(C)nnc3c3ccccc23)cc1S(=O)(=O)NCc1ccco1 | 15.4 µM
Cc1ccc(C(=O)CSc2nnc(COc3ccccc3)o2)cc1 | 40.9 µM (inactive)
COc1ccc(NC(=O)c2nnn(Cc3cccc(F)c3)c2N)c(OC)c1 | > 80 µM (inactive)
CCCCn1c2c(c(=N)c3ccccc31)CCC2 | 40.8 µM (inactive)
O=C(CN1C(=O)c2ccccc2S1(=O)=O)c1ccc(OC(F)F)cc1 | 5.26 µM
CC(C)(C)c1ccc(-n2ncc3c2CCCC3NC(=O)C2(C(N)=O)CC2)cc1 (stereo not drawn) | 0.34 µM
CCN(CC(=O)Nc1c(F)cccc1F)C(=O)c1cc(S(=O)(=O)N(C)C)ccc1N1CCCC1 | > 80 µM (inactive)
COc1ccc(NC(=O)CN(C)C(=O)C2(c3ccccc3)CCCC2)cc1 | 21.3 µM (inactive)
O=C(CCl)N1CCN(S(=O)(=O)c2ccc3c(c2)CCC3)CC1 | 41.9 µM (inactive)
CN(C)c1cc[n+](Cc2c(Cl)cccc2Cl)cc1 | 9.88 µM
C=CCOC(=O)COc1cc(C)cc2oc(=O)c3c(c12)CCC3 | > 80 µM (inactive)
CCN1C(=O)c2cccc3c(NC(=O)c4cccc(N5C(=O)CCC5=O)c4)ccc1c23 | > 80 µM (inactive)
CC(C)c1ccc(/C=C2\SC(=S)N(CCC(=O)N3CCCCC3CCO)C2=O)cc1 (stereo not drawn) | 17.5 µM
Cc1ccc(-c2nc(C(=O)NCC3CCCO3)cc3c2[nH]c2ccccc23)cc1 (stereo not drawn) | 8.81 µM
COc1ccc(C(=O)Nc2nnc(Cc3cccs3)s2)cc1OC | > 80 µM (inactive)
CNC(=O)CCc1nc(-c2ccc(C(C)(C)C)cc2)no1 | 56.4 µM (inactive)
COc1ccc(C=C(C(C)=O)C(C)=O)cc1OC | > 80 µM (inactive)

Structure (SMILES) | IC50
O=C1CCC2S/C(=C/Nc3ccc(C(F)(F)F)cc3)C(=O)N12 (stereo not drawn) | 3.77 µM
NC(=S)N=Nc1c(O)n(Cc2ccccc2)c2ccccc12 | > 80 µM (inactive)
COc1ccc(-c2n(Cc3ccccc3)c3ccccc3[n+]2Cc2ccccc2)cc1 | 24.2 µM (inactive)
Cc1nn(C)c(C)c1CN(C)S(=O)(=O)c1ccc2ccccc2c1 | 0.36 µM
C[C@H]1CCC/C=C/C2C[C@H](O)CC2[C@H](O)/C=C/C(=O)O1 (stereo partly drawn) | 0.29 µM
CCc1cccc(NC(=O)c2ccc(CNc3c(N4CCCC4)c(=O)c3=O)cc2)c1 | > 80 µM (inactive)
COC(=O)C(C)Oc1cc(C)cc2oc(=O)c3c(c12)CCC3 (stereo not drawn) | 28.6 µM (inactive)
CCN1C(=O)c2cccc3c(S(=O)(=O)N4CCC(C)CC4)ccc1c23 | 17.5 µM
COc1cc(NC(=O)c2cc3c(C)nc4ccccc4c3o2)cc(OC)c1OC | 18.4 µM
Cc1nn(-c2ccc(N3CCCCC3)nn2)c(C)c1CCC(=O)Nc1ccccc1F | 73.3 µM (inactive)
CCc1ccc(-c2nc(CSCC(=O)NC3CC3)c(C)o2)cc1 | 30.5 µM (inactive)
Cc1nn(C(C)(C)C)c(C)c1/C=N/OC(=O)Nc1ccc(Cl)c(Cl)c1 | < 0.16 µM
CC(C)C(=O)Nc1ccc(NC(=O)c2ccc3c(c2)OCO3)cc1 | > 80 µM (inactive)
COc1ccc(OC)c(S(=O)(=O)Nc2ccc(-c3ccc4nnc(C)n4n3)cc2)c1 | 32.2 µM (inactive)
O=C(NNC(=O)C12CC3CC(CC(C3)C1)C2)c1cccc(O)c1 | > 80 µM (inactive)
CCOc1ccc(/C=C2\SC(=S)N(CCC(=O)Nc3ccc(C(=O)O)cc3)C2=O)cc1 | > 80 µM (inactive)
CC(=O)c1cccc(S(=O)(=O)Nc2cc(C(F)(F)F)ccc2N2CCOCC2)c1 | > 80 µM (inactive)
O=S(=O)(NCc1ccncc1)c1ccc(Br)s1 | 0.86 µM
N=c1c2c(n(Cc3ccc(Cl)c(Cl)c3)c3c1CCC3)CCCC2 | 2.35 µM
CCn1c(=O)cc(SCC(=O)N2CCOCC2)c2ccccc21 | > 80 µM (inactive)
CCCNC(=O)CSCc1nc(-c2ccc(SC)cc2)oc1C | 38.5 µM (inactive)
COc1cc(OC)cc(-c2cc3nc(C)c(CCC(=O)NCc4ccccc4)c(C)n3n2)c1 | 10.5 µM
O=c1c(C=NCCCO)c(-c2ccccc2)[nH]n1-c1nc2ccccc2s1 | > 80 µM (inactive)
COc1cc(C(=O)Nc2cc(C)c(OCC(=O)N3CCOCC3)c(C)c2)cc(OC)c1OC | > 80 µM (inactive)
Cc1nc([N+](=O)[O-])c(Sc2nc3ccc([N+](=O)[O-])cc3[nH]2)n1Cc1ccccc1 | 47.5 µM (inactive)

Structure (SMILES) | IC50
COc1ccc(/C=C2\SC(=S)N(CCCC(=O)Nc3ccc(O)cc3)C2=O)cc1 | > 80 µM (inactive)
COc1ccc(-c2nc(CSCC(=O)NCc3ccco3)c(C)o2)cc1 | 38.5 µM (inactive)
CCOc1ccc(-c2noc(CCC(=O)O)n2)cc1 | 8.98 µM
COc1ccc(-c2ccc(C)cc2)cc1[C@H]1[C@H]2C=CC[C@@H](C)[C@@H]2C(=O)N1Cc1ccccc1 | 48.4 µM (inactive)
CC1=CC(C)(C)Nc2ccc(OC(=O)CN3C(=O)CCC3=O)cc21 | 11.1 µM
Cc1ccc(/C=C2\SC(=S)N(CCCC(=O)NNC(=O)c3ccccc3O)C2=O)cc1 | 5.48 µM
CCOc1ccc(-c2cc(CCCC(=O)NCc3ccco3)no2)cc1 | 22.1 µM (inactive)
O=C(Oc1cccc(/C=N/Nc2nc(Nc3ccccc3)nc(N3CCOCC3)n2)c1)c1ccco1 | > 80 µM (inactive)
CCN(CC)CCCN=Cc1c(-c2ccccc2)[nH]n(-c2nc3ccccc3s2)c1=O | > 80 µM (inactive)
Cc1ccc(/C=C2\SC(=S)N(CCC(=O)NNC(=O)c3ccncc3)C2=O)cc1 | > 80 µM (inactive)
CC1CCN(c2c(NCc3ccc(C(=O)N4c5ccccc5CC4C)cc3)c(=O)c2=O)CC1 (stereo not drawn) | 8.73 µM
C(=N\Nc1nc(Nc2ccccc2)nc(Nc2ccccc2)n1)/c1cccnc1 | > 80 µM (inactive)
Cn1c(=O)cc(OCCCC(=O)N2CCCCC2)c2ccccc21 | 60.2 µM (inactive)
CCOc1ccc(-c2nnc(SCC(=O)Nc3cc(C)on3)o2)cc1 | > 80 µM (inactive)
Cc1cccc(C(=O)Nc2ccc(CC(=O)O)cc2)c1 | 45.2 µM (inactive)
Cc1ccc(/C=C2/SC(=S)N(CCCC(=O)Nc3ccc(O)cc3)C2=O)cc1 | > 80 µM (inactive)
COc1ccc(/C=C2/SC(=S)N(CCCC(=O)Nc3ccc(O)cc3)C2=O)cc1 | > 80 µM (inactive)
CCOC(=O)N1CCN(c2ncnc3c2[nH]c2ccc(OC)cc23)CC1 | 20.1 µM (inactive)
O=C(CCl)N(c1ccc(Cl)cc1)c1c[nH]c2ccccc12 | 10.8 µM
CCOc1cc2nc(-c3ccc(OC)c(OC)c3)nc(N3CCOCC3)c2cc1OC | 7.5 µM
Cc1cnc(NC(=O)Nc2ccc(Cl)cc2)s1 | > 80 µM (inactive)
O=C(c1cc2nc(-c3ccccc3)cc(-c3ccccc3)n2n1)N1CCN(C(=O)c2ccco2)CC1 | 11 µM
CC(C)(O)/C=C/C(=O)[C@](C)(O)C1[C@H](O)C[C@@]2(C)C3CC=C4C(C[C@H](O)[C@@H](O)C4(C)C)[C@]3(C)C(=O)C[C@]12C (stereo partly drawn) | 65.8 µM (inactive)
CCSc1ncc(Cl)c(C(=O)Nc2sc3c(c2C(=O)NCc2cccnc2)CCCC3)n1 | > 80 µM (inactive)
ClCc1nnc(-c2ccccc2)o1 | > 80 µM (inactive)

Structure (SMILES) | IC50
Cc1ccc(S(=O)(=O)CC2CSc3nc4ccccc4n32)cc1 (stereo not drawn) | 0.41 µM
CCN(CC)c1ccc(/C=C2/C(=O)ON=C2C)cc1 | > 80 µM (inactive)
O=S(=O)(c1cnc(Cl)c(Cl)c1)N1CCCc2ccccc21 | > 80 µM (inactive)
Cc1nc2ccccn2c1C(=O)/C=C/c1cccc([N+](=O)[O-])c1 | 52.6 µM (inactive)
Cn1nc(-c2ccc(N3CCOCC3)c(NS(=O)(=O)c3ccccc3)c2)c2ccccc2c1=O | 36.9 µM (inactive)
Cc1nnc2c3ccccc3c(-c3ccccc3)nn12 | 61.4 µM (inactive)
Cc1ccc(-c2nn3c(C)nnc3c3ccccc23)cc1S(=O)(=O)N1CCN(CCO)CC1 | 22.4 µM (inactive)
Fc1ccc(C2=Nn3c(nnc3-c3n[nH]c4c3CCC4)SC2)cc1 | 16.7 µM
N=c1c2c(n(Cc3cccc(Cl)c3)c3c1CCC3)CCCC2 | 3.77 µM
CC1(c2nnc(-c3cccc(Cl)c3)o2)CC(c2cccc(Cl)c2)=NO1 (stereo not drawn) | 29.9 µM (inactive)
CC(=O)c1cn(CCOc2cc(C)ccc2C)c2ccccc12 | 0.29 µM
COc1ccc(-n2c(-c3ccc(Br)cc3)c[n+]3c2CCc2ccccc2-3)cc1 | 3.96 µM
N=c1ccn2c(n1)OC1C(O)C(CO)OC12 (stereo not drawn) | > 80 µM (inactive)
O=C(CN1C(=O)c2ccccc2S1(=O)=O)N1CCc2ccccc21 | 0.897 µM
COC(=O)c1[nH]c2ccc(C)cc2c1NC(=O)Nc1ccccc1OC | > 80 µM (inactive)
C=C(C)[C@@H]1CCC2(C(=O)O)CC[C@]3(C)[C@H](CC[C@@H]4[C@@]5(C)CCC(=O)C(C)(C)[C@@H]5CC[C@]43C)[C@@H]12 (stereo partly drawn) | 3.31 µM
CC1=CC(C)(C)Nc2ccc(OC(=O)C(C)N3C(=O)c4ccccc4C3=O)cc21 (stereo not drawn) | 11.5 µM
COc1ccc(C(=O)Nc2ccccc2C(=O)NCc2ccco2)cc1OC | > 80 µM (inactive)
O=C(Cc1cccc2ccccc12)Nc1ccc(-c2cc3ccccc3oc2=O)cc1 | > 80 µM (inactive)
COc1ccc(-c2ccc(N(C)C)cc2)cc1[C@H]1[C@H]2C=CC[C@@H](C)[C@@H]2C(=O)N1Cc1ccccc1 | > 80 µM (inactive)
Cn1c(=O)c2c(SCC(=O)Nc3ccccc3F)nc(-c3ccccc3F)nc2n(C)c1=O | > 80 µM (inactive)
CCN(C(=O)CN1C(=O)NC(c2ccccc2)(c2ccc(C)c(C)c2)C1=O)C1CCCCC1 (stereo not drawn) | 26.6 µM (inactive)
CCOC(=O)C(=CNc1cc(C)ccc1C)C(=O)OCC | 18.9 µM
